Molecules are shown by their SMILES. Starred links: 1 amine or outer side, 2 acyl side, 3 side chain; linkers in the order of their positions; H or OH if unused. Positions of bridges follow the written chain, without caps; N, C: chain ends. Non-standard residues stand in square brackets, D forms with d. Residues, ends and D or L forms follow the SMILES beside them. *: point of attachment. hPhe(3-Cl-4-CF3) = N[C@@H](CCc1ccc(C(F)(F)F)c(Cl)c1)C(=O)O; X82 = O=C([C@H](Cc1cccc(OC(F)(F)F)c1)N[*:1])[*:2]; NMePhe(4-Cl) = CN[C@@H](Cc1ccc(Cl)cc1)C(=O)O; NMePhe(4-Me) = CN[C@@H](Cc1ccc(C)cc1)C(=O)O; X83 = O=C([C@H](Cc1cncc(Br)c1)N[*:1])[*:2]; NMeGly(cPent) = CN[C@H](C(=O)O)C1CCCC1; NMeY = CN[C@@H](Cc1ccc(O)cc1)C(=O)O; NMeCha = CN[C@@H](CC1CCCCC1)C(=O)O; NMeF = CN[C@@H](Cc1ccccc1)C(=O)O; NMeI = CC[C@H](C)[C@H](NC)C(=O)O; Cha = N[C@@H](CC1CCCCC1)C(=O)O; NMeD = CN[C@@H](CC(=O)O)C(=O)O; dNMeD = CN[C@H](CC(=O)O)C(=O)O; NMeL = CN[C@@H](CC(C)C)C(=O)O; NMeV = CN[C@H](C(=O)O)C(C)C; d(β3hA) = C[C@@H](N)CC(=O)O; NMeAbu = CC[C@H](NC)C(=O)O; NMeS = CN[C@@H](CO)C(=O)O; NMeA = CN[C@@H](C)C(=O)O; NMeAib = CNC(C)(C)C(=O)O; Nle = CCCC[C@H](N)C(=O)O; Piperidide = C1CCN(*)CC1; Pyrrolidide = C1CCN(*)C1; dNMeA = CN[C@H](C)C(=O)O; Ac5c = NC1(C(=O)O)CCCC1; Aze = O=C(O)[C@@H]1CCN1; CH2CMe2OH = CC(C)(O)C*; Aib = CC(C)(N)C(=O)O; Isopentyl = CC(C)CC*; Sar = CNCC(=O)O

In the assay the target is T1, Kras and SOS1 (biotin-tagged human Kras loaded with GDP, His-tagged human SOS1) (Homo sapiens, UniProt P01116, G12D).
T1 construct: made in house; host or cells: E. coli (stated for Kras only)
T1 sequence (P01116 1-188 isoform P01116-2 G12D): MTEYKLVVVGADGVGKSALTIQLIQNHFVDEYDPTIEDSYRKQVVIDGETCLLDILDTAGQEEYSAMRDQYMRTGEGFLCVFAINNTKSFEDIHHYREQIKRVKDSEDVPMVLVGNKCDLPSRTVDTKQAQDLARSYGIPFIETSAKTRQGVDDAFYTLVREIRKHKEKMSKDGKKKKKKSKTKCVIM
As to the kind of experiment: Protein-protein interaction inhibition between Kras and SOS1 (KrasGl2D-SOS PPI) using AlphaScreen. It is filed as binding. As to conditions: AlphaScreen; biotin-tagged human Kras loaded with GDP, His-tagged human SOS1; read-out: KRAS G12D-SOS PPI IC50. The procedure, abridged:
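Read-out is acceptor-bead light at 520-620 nm, arising when 680 nm-irradiated nickel donor beads pass singlet oxygen to streptavidin acceptors. The bead pair links His-tagged SOS1 with biotin-tagged, GDP-bound Kras from E. coli.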
On the technique in general: Alpha assays give light when donor and acceptor beads are brought close together.
Take `CC[C@H](C)[C@@H]1NC(=O)[C@H](CC(C)C)N(C)C(=O)C[C@@H](C(=O)N(C)C)N(C)C(=O)[C@H]([C@@H](C)CC)N(C)C(=O)[C@H](C)NC(=O)[C@@H](C)NC(=O)[C@H](CCc2ccc(C(F)(F)F)c(Cl)c2)NC(=O)CN(C)C(=O)[C@H](Cc2ccc(C)cc2)N(C)C(=O)[C@@H]2CCN2C(=O)[C@H](C)N(C)C1=O` [Compound 382] ([NMeL]I[NMeA][Aze][NMePhe(4-Me)][Sar][hPhe(3-Cl-4-CF3)][dA]A[NMeI][NMeD]-NMe2; lactam N-11): the IC50 was found to be 35 nM.
The same measure for `CC[C@H](C)[C@@H]1NC(=O)[C@H](CC(C)C)N(C)C(=O)C[C@@H](C)NC(=O)[C@H](C(C)C)N(C)C(=O)C2(CCCC2)NC(=O)[C@@H]2CCCN2C(=O)[C@H](CCc2ccc(C(F)(F)F)c(Cl)c2)NC(=O)CN(C)C(=O)[C@H](CC2CCCCC2)N(C)C(=O)[C@@H]2CCCN2C(=O)CN(C)C1=O` [Compound 1050] (cyclo([Ac5c][NMeV][d(β3hA)][NMeL]I[Sar]P[NMeCha][Sar][hPhe(3-Cl-4-CF3)]P)): 49 nM.
Consider `CC[C@H](C)[C@@H]1NC(=O)[C@H](CC(C)C)N(C)C(=O)C[C@@H](C)NC(=O)[C@H](C(C)C)N(C)C(=O)C2(CCCC2)NC(=O)[C@@H]2CCCN2C(=O)[C@H](CCc2ccc(C(F)(F)F)c(Cl)c2)NC(=O)CN(C)C(=O)[C@H](CC2CCCCC2)N(C)C(=O)[C@@H]2CCN2C(=O)[C@H](CC2CCCCC2)N(C)C1=O` [Compound 1581] (cyclo([Ac5c][NMeV][d(β3hA)][NMeL]I[NMeCha][Aze][NMeCha][Sar][hPhe(3-Cl-4-CF3)]P)), for which the IC50 amounted to 230 nM.
As for `CCCC[C@@H]1NC(=O)[C@H](Cc2cncc(Br)c2)NC(=O)CN(C)C(=O)[C@H](Cc2ccc(OC)cc2)N(C)C(=O)[C@@H]2CCN2C(=O)[C@H](C)N(C)C(=O)[C@H]([C@@H](C)CC)NC(=O)[C@H](CC)N(C)C(=O)C[C@@H](C(=O)N2CCCCC2)N(C)C(=O)[C@H](CC(C)C)NC(=O)C(C)(C)N(C)C1=O` [Compound 1240] ([NMeAbu]I[NMeA][Aze][NMeY](Me)[Sar][X83][Nle][NMeAib]L[NMeD]-Piperidide; lactam N-11), the figure is 290 nM; as for `CC(C)C[C@H]1C(=O)N[C@@H](CC2CCCCC2)C(=O)N(C)CC(=O)N(C)CC(=O)N(C)[C@@H](CC2CCCCC2)C(=O)N(C)CC(=O)N[C@@H](CCc2ccc(C(F)(F)F)c(Cl)c2)C(=O)N2CCC[C@H]2C(=O)NC2(CCCC2)C(=O)N(C)[C@@H](C(C)C)C(=O)N(C)[C@H](C(=O)N2CCCCC2)CC(=O)N1C` [Compound 986] ([NMeL][Cha][Sar][Sar][NMeCha][Sar][hPhe(3-Cl-4-CF3)]P[Ac5c][NMeV][NMeD]-Piperidide; lactam N-11), 25 nM; as for `CC[C@H](C)[C@@H]1NC(=O)[C@H](C)N(C)C(=O)C[C@@H](C)NC(=O)[C@H](C2CCCC2)N(C)C(=O)C2(CCCC2)NC(=O)[C@@H]2CCCN2C(=O)[C@H](CCc2ccc(C(F)(F)F)c(Cl)c2)NC(=O)[C@@H](C)N(C)C(=O)[C@H](Cc2ccc(C)cc2)N(C)C(=O)CN(C)C(=O)CN(C)C1=O` [Compound 1465] (cyclo([Ac5c][NMeGly(cPent)][d(β3hA)][NMeA]I[Sar][Sar][NMePhe(4-Me)][dNMeA][hPhe(3-Cl-4-CF3)]P)), 51 nM.
The same measure for `CC[C@H](C)[C@@H]1NC(=O)[C@H](CC(C)C)N(C)C(=O)C[C@H](C(=O)N2CCCC2)N(C)C(=O)[C@H](C2CCCC2)N(C)C(=O)C2(CCCC2)NC(=O)[C@@H]2CCCN2C(=O)[C@H](CCc2ccc(C(F)(F)F)c(Cl)c2)NC(=O)CN(C)C(=O)[C@H](CC2CCCCC2)N(C)C(=O)CN(C)C(=O)CN(C)C1=O` [Compound 1794] ([NMeL]I[Sar][Sar][NMeCha][Sar][hPhe(3-Cl-4-CF3)]P[Ac5c][NMeGly(cPent)][dNMeD]-Pyrrolidide; lactam N-11): 40 nM; for `CC[C@H](C)[C@@H]1NC(=O)[C@H](CC(C)C)N(C)C(=O)C[C@@H](C(=O)N2CCCCC2)N(C)C(=O)[C@H](CC(C)C)N(C)C(=O)C(C)(C)NC(=O)[C@H](COCC(C)(C)O)N(C)C(=O)[C@H](CCc2ccc(C(F)(F)F)c(Cl)c2)NC(=O)CN(C)C(=O)[C@H](COCCC(C)C)N(C)C(=O)CN(C)C(=O)CN(C)C1=O` [Compound 1541] ([NMeL]I[Sar][Sar][NMeS](Isopentyl)[Sar][hPhe(3-Cl-4-CF3)][NMeS](CH2CMe2OH)[Aib][NMeL][NMeD]-Piperidide; lactam N-11): 4 nM.
On to `CC[C@H](C)[C@@H]1NC(=O)[C@H](C)N(C)C(=O)C[C@@H](C(=O)N2CCCCC2)NC(=O)[C@H](CC(C)C)N(C)C(=O)[C@H](Cc2ccccc2)N(C)C(=O)[C@H](CC(C)C)NC(=O)[C@H](Cc2cccc(OC(F)(F)F)c2)NC(=O)CN(C)C(=O)[C@H](Cc2ccc(Cl)cc2)N(C)C(=O)CN(C)C(=O)CN(C)C1=O` [Compound 473] ([NMeA]I[Sar][Sar][NMePhe(4-Cl)][Sar][X82]L[NMeF][NMeL]D-Piperidide; lactam N-11), for which the IC50 turned out to be 410 nM.

A word on the IC50: it is the concentration that inhibits the measured activity by half.

Values taken from patent US12371454B2, “Cyclic peptide compound having Kras inhibitory action” (priority 2019, dated 2025).
